These results are taken from publication PMC11035696, “Prospective de novo drug design with deep interactome learning” (Nature Communications, 2024).

Data set [1] has as its target XANTHINE OXIDASE (Bos taurus, UniProt P80457). In words: Safety off-target panel, enzymatic. It counts as biochemical, Bovine. To be noted: single point. From the text: (§1) Table S9-S12 list all targets, their species, inhibition (%) and assay type for the experiments conducted in the
(§2) off-targets. […] The numbers for mean
(§3) inhibition (%) represent single point measurements.
(§4) off-targets. […] The numbers for
(§5) mean inhibition (%) represent single point measurements.

Data set [2] can be described thus: Hepatocyte clearance, human. It counts as in vitro ADME. Also noted: Hepatocyte clearance human: unit not given here. To be noted: for Hepatocyte clearance human: human hepatocytes, as printed in Table S14. The method, then: (§6) Compounds 1–3 were characterized in a hybrid reporter gene assay for their agoniztic effect on human nuclear receptors PPARα/γ/δ, RXRα, FXRα, RARα in HEK293T cells. Compound 1 was tested in an isothermal titration calorimetry (ITC) assay to measure direct binding affinity to the ligand-binding domain of PPARγ. ADME properties were measured in standardized assays at Roche.
(§7) SI11Absorption Distribution Metabolism and Excretion and Toxicity Data
(§8) To assess the drug-like characteristics of the newly designed PPAR modulators, a series of tests were conducted covering various aspects of absorption, distribution, metabolism, and excretion (ADME) properties. Specifically, these assessments included the parallel artificial membrane permeability assay (PAMPA) with permeation co- […]
(§9) efficients ([…]), LogD measurements, microsomal clearance, hepatocyte clearance, P-glycoprotein (Pgp) efflux ratio and binding and the unbound free fraction. […]
(§10) Table S14: Absorption distribution metabolism and excretion (ADME) properties of compounds 1 and 2. The […]
values for […], LogD, protein binding, P-glycoprotein (Pgp) efflux ratio and permeability, and hepato-cyte clearance are presented as the mean and standard deviation, with a sample size of N = 3, i.e., 3 technical replicates each. The values for microsomal clearance and CYP-inhibition represent single point measurements.
Microsomal clearance, human (µL·min−1·mg−1 protein) ≥10 ≥10 ≥10
Microsomal clearance, mouse (µL·min−1·mg−1 protein) ≥10 ≥10 ≥10
Microsomal clearance, rat (µL·min−1·mg−1 protein) ≥10 ≥10 ≥10
Protein binding human (% free fraction) (%) - 0.21 0.42
PgP Transport mouse apical efflux ratio - 1.6 1.2
PgP Transport mouse permeability (nm·sec−1) - 15 60 […]

The nature of data set [3]: Protein binding, unbound free fraction. It counts as in vitro ADME. To be noted: human, plasma. The method, then:
as §6, §7, §8, §9, §10
values for […], LogD, protein binding, P-glycoprotein (Pgp) efflux ratio and permeability, and hepato-cyte clearance are presented as the mean and standard deviation, with a sample size of N = 3, i.e., 3 technical replicates each. The values for microsomal clearance and CYP-inhibition represent single point measurements. […]

The target in data set [4] is MONOAMINE OXIDASE-A (Homo sapiens, UniProt P21397). Kind of data set: Safety off-target panel, enzymatic. Format: biochemical. To be noted: single point.
Excerpt: as §1, §2, §3, §4, §5

The target in data set [5] is PHOSPHODIESTERASE 3B (Homo sapiens, UniProt Q13370). In words: Safety off-target panel, enzymatic. Format: biochemical. The note with it: single point.
Excerpt: as §1, §2, §3, §4, §5

Data set [6] deals with GSK-3A (Homo sapiens, UniProt P49840). Kind of data set: Safety off-target panel, enzymatic. Format: biochemical. To be noted: single point.
Excerpt: as §1, §2, §3, §4, §5

Data set [7] has as its system HIV-1 PROTEASE
Kind of data set: Safety off-target panel, enzymatic. Format: biochemical. To be noted: 10 µM, single point.
Excerpt: as §1, §2, §3, §4, §5

Data set [8] concerns the target CYCLO OXYGENASE 2 (Homo sapiens, UniProt P35354). In words: Safety off-target panel, enzymatic. The note with it: single point. Format: biochemical.
Excerpt: as §1, §2, §3, §4, §5

For data set [9], the target named is ACETYLCHOLINESTERASE (Homo sapiens, UniProt P22303). Kind of data set: Safety off-target panel, enzymatic. Format: biochemical. The note with it: single point.
Excerpt: as §1, §2, §3, §4, §5

Data set [10] concerns the target PHOSPHODIESTERASE 4D2 (Homo sapiens, UniProt Q08499). In words: Safety off-target panel, enzymatic. To be noted: single point. It counts as biochemical.
Excerpt: as §1, §2, §3, §4, §5

Data set [11] addresses ZAP70 (Homo sapiens, UniProt P43403). In words: Safety off-target panel, enzymatic. It counts as biochemical. The note with it: single point.
Excerpt: as §1, §2, §3, §4, §5

Data set [12] deals with ABL1 (Homo sapiens, UniProt P00519). Kind of data set: Safety off-target panel, enzymatic. Format: biochemical. The note with it: single point.
ABL1, sequence (P00519 whole entry): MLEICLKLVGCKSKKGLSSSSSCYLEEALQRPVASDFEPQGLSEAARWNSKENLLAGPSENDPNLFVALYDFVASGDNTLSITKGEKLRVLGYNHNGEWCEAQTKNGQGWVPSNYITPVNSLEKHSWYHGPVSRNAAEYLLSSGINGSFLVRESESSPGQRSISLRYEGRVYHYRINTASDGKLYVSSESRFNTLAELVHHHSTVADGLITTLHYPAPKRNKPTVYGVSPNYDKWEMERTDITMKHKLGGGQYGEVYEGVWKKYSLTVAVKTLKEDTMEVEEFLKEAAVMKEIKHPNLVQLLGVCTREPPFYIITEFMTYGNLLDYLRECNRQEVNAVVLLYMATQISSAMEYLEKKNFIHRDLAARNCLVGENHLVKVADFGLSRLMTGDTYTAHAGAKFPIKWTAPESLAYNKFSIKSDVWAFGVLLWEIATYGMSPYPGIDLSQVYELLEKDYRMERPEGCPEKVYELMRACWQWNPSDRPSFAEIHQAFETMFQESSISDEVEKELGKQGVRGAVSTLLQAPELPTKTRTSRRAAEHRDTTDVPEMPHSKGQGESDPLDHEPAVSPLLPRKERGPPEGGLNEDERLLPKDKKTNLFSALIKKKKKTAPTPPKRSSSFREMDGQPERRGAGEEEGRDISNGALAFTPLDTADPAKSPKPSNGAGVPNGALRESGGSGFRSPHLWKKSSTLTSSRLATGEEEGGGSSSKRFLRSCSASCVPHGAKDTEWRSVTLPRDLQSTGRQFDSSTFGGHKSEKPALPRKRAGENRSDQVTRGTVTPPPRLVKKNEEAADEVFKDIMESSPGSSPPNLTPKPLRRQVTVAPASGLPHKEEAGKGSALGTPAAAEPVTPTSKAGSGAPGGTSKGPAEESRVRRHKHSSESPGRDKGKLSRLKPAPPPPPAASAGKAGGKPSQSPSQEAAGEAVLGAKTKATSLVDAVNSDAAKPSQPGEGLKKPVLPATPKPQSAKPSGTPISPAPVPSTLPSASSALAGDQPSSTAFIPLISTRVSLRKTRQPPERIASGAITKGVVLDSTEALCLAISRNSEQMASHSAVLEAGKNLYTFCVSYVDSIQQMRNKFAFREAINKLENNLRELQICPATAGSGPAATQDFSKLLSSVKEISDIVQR
Excerpt: as §1, §2, §3, §4, §5

For data set [13], the target named is GSK-3B (Homo sapiens, UniProt P49841). Kind of data set: Safety off-target panel, enzymatic. Format: biochemical. To be noted: single point.
Excerpt: as §1, §2, §3, §4, §5

The target of data set [14] is ANGIOTENSIN CONVERTING ENZYME (Homo sapiens, UniProt P12821). Kind of data set: Safety off-target panel, enzymatic. Format: biochemical. To be noted: single point.
ANGIOTENSIN CONVERTING ENZYME, sequence (P12821 30-1306): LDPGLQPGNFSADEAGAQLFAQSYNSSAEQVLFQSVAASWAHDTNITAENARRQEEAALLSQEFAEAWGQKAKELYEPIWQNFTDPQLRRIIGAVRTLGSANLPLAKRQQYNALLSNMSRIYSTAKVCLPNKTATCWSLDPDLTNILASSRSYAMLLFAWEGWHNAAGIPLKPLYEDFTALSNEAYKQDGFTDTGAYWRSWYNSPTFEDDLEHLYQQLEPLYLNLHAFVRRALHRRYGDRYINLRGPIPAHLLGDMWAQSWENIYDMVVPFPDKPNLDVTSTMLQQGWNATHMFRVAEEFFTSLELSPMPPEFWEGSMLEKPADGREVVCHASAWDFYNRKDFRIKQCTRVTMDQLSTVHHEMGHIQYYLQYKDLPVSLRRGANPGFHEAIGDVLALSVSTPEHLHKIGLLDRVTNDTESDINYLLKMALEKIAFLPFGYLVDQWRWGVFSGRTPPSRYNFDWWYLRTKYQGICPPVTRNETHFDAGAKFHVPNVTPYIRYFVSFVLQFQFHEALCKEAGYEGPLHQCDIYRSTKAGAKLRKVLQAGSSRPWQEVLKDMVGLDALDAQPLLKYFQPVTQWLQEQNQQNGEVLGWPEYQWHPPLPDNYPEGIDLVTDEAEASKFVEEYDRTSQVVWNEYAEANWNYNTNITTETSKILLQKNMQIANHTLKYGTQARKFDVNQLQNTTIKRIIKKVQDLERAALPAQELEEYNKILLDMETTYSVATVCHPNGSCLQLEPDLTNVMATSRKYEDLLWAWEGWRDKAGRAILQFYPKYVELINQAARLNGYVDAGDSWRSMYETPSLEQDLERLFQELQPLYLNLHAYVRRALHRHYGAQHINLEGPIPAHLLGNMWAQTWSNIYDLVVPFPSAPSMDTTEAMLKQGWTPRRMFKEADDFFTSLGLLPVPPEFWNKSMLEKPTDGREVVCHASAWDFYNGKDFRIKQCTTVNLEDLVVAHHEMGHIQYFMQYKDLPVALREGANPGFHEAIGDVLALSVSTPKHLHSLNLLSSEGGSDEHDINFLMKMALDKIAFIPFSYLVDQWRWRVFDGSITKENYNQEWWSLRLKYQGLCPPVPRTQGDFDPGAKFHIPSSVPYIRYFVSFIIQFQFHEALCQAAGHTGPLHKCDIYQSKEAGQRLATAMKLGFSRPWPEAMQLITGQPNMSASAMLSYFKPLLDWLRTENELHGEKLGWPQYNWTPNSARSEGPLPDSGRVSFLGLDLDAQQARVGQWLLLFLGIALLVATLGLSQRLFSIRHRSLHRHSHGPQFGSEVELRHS
Excerpt: as §1, §2, §3, §4, §5

The target in data set [15] is CDK2 (Homo sapiens, UniProt P24941). In words: Safety off-target panel, enzymatic. Format: biochemical. The note with it: single point.
Excerpt: as §1, §2, §3, §4, §5

Data set [16] concerns NICOTINIC RECEPTOR, NEURONAL (α-BGTX insens.). In words: Safety off-target panel, binding. On the set-up: species or system Human. To be noted: 10 µM, single point.
Excerpt: as §1, §2, §3, §4, §5

SMILES strings stand for the structures.

XANTHINE OXIDASE, sequence (P80457 whole entry): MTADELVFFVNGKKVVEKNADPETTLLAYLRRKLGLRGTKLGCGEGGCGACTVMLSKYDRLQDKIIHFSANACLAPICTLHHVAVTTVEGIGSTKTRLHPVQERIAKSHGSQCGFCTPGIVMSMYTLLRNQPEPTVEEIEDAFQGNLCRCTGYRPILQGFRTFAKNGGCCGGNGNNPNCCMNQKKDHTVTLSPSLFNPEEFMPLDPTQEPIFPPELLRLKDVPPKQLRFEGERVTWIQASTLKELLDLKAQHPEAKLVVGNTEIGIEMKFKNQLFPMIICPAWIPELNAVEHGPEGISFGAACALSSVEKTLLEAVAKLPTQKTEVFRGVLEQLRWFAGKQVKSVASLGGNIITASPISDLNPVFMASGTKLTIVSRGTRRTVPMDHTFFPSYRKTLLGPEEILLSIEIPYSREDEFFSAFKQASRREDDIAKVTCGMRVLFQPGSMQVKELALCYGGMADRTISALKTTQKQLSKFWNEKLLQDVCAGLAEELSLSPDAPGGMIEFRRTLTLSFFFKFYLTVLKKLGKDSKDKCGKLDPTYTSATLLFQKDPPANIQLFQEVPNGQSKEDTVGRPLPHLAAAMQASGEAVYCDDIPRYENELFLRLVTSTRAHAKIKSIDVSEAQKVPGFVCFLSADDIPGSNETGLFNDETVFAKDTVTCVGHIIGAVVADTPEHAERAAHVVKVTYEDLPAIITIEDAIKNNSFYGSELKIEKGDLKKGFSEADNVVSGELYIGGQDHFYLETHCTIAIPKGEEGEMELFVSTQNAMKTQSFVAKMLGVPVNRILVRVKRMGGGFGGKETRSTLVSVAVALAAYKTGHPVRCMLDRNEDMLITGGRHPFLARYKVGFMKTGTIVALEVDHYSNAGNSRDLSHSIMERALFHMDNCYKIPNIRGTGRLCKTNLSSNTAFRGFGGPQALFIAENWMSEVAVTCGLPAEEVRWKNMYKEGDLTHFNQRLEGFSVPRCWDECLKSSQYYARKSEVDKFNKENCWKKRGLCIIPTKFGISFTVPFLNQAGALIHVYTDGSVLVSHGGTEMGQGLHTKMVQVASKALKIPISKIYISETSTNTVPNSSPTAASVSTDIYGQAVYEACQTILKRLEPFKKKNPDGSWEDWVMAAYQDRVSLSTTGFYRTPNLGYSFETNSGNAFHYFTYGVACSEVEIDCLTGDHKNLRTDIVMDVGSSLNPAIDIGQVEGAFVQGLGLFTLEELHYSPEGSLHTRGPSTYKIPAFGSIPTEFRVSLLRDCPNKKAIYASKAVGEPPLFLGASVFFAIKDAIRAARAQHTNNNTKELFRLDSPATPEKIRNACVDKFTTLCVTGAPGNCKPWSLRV
CYCLO OXYGENASE 2, sequence (P35354 18-604): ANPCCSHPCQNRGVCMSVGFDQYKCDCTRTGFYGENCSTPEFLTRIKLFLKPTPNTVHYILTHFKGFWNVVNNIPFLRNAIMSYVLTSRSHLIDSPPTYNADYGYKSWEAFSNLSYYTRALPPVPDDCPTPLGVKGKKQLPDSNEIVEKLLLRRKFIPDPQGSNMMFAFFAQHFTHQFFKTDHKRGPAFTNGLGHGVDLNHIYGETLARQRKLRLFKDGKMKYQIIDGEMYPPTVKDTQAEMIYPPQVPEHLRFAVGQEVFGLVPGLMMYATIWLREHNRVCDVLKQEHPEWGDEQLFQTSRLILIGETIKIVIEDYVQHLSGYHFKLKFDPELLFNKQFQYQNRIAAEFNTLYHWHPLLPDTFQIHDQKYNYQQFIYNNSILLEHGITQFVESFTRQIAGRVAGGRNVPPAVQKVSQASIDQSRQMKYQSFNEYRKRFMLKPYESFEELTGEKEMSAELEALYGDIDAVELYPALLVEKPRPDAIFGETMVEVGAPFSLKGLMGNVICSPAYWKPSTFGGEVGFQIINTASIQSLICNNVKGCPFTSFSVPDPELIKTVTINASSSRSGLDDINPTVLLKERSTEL
UniProt Q08499, sequence (Q08499 303-809 limits assumed): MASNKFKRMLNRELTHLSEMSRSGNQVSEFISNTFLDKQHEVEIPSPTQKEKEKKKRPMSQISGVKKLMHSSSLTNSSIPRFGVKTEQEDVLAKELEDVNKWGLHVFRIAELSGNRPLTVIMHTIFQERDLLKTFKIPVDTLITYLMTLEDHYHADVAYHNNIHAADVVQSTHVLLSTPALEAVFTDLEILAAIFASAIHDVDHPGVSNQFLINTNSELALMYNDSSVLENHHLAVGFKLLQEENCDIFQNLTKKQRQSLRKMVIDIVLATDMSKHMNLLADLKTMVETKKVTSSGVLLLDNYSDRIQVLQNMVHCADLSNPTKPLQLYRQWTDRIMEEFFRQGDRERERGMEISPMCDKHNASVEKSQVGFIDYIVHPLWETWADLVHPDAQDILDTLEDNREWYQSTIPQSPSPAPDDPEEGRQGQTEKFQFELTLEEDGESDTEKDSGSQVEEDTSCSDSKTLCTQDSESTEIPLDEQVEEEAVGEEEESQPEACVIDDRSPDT

Usually inhibition stands for the change of the read-out against control, counted positive when it falls. A word on the fraction unbound: it is the share of the substance not bound to proteins or other matrix. For `Cc1nnc(-c2ccc(OCCCOc3ccc(CCC(=O)O)c(F)c3)c(F)c2)s1` [Compound 1], the inhibition at 10 µM is -3.1% in [1]; 13.3% in data set [4]; 1.4% in data set [5]; 39.6% in [6]; -21.7% in [8]; 0% in [9]. The inhibition at 10 µM in data set [10] is 3.1%; in [11], -0.3%; in [12], 4.4%; in data set [13], 20.2%; in data set [14], -11.6%; in [15], 3.6%. In addition, the “clearance rate in human hepatocytes” value in data set [2] is given as 19 μL·min−1 10^6 cells−1. Moreover, the Hepatocyte clearance human in data set [2] is 19. In [3], this molecule showed a fraction unbound of 0.0021. In addition, the “Mean inhibition (%)” value is 8.2% in data set [7] and -6.9% in [16].
In the case of `COc1ccc(Oc2ccc3ncn(CCOc4ccc(CCC(=O)O)cc4)c3c2)cc1` [Compound 2], the inhibition at 10 µM was 0.4% in data set [1]; 4.4% in [4]; -26.7% in data set [5]; -8.8% in [6]; -10.4% in [8]; 2% in data set [9]. The inhibition at 10 µM is -3.8% in data set [10]; 3.5% in data set [11]; -11% in data set [12]; -20.3% in [13]; -44.3% in [14]; 45.9% in data set [15]. The “clearance rate in human hepatocytes” value in [2] was 19 μL·min−1 10^6 cells−1. In [2], the Hepatocyte clearance human was 19. The same molecule displayed an unbound share (fraction unbound) in data set [3] of 0.0042. Besides, the entries for the “Mean inhibition (%)” value in data set [7] and in data set [16] were 0.2% and -2.9%, respectively.
